Measurements as given in patent US20250041278A1, “TLR8 AGONIST FOR MODULATING IMMUNE RESPONSE” (The Children's Medical Center Corporation, priority 2021, published 2025).

Assays:
Format in all cases: cell-based
[1] = tested on: human adult and elderly PBMCs; assay: 14-multiplex cytokine assay in PBMC supernatants
Text: FIGS. 1A-1D. Discovery of PVP-179 in a human PBMC high-throughput screen. FIG. 1A: A graphical overview depicting screen approach. From a high-throughput screen previously conducted, 310 molecules were identified to be activators of either THP-1 cells (monocyte cell line) or primary human adult peripheral blood mononuclear cells (PBMCs). These 310 molecules were assembled into a stimulation plate and then applied to the PBMCs of 4 elderly donors (cultured with 10% autologous plasma). […] Z scores were averaged across all four elderly donors. The Z score and chemical structure for PVP-179 are indicated. FIG. 1C: Human adult or elderly PBMCs (cultured with 10% autologous plasma) were stimulated with PVP-179 in a two-point concentration titration manner. After 18 hours of incubation, supernatant was processed for ELISA-based measurement of TNF production. N=4 donors. FIG. 1D: As in FIG. 1C, the supernatants were collected, and 14 cytokines were measured by multiplex assay. […] N=4 donors each.
The activity of PVP-179 was confirmed in a 96-well format in both human adult and elderly PBMCs.

hTLR8 = target: T1, hTLR8 (Homo sapiens, UniProt Q9NR97); assay: HEK-293 hTLR8 NF-κB/AP-1 SEAP reporter assay
T1 construct: host or cells: HEK-293 reporter cells
T1 sequence (Q9NR97 27-1041): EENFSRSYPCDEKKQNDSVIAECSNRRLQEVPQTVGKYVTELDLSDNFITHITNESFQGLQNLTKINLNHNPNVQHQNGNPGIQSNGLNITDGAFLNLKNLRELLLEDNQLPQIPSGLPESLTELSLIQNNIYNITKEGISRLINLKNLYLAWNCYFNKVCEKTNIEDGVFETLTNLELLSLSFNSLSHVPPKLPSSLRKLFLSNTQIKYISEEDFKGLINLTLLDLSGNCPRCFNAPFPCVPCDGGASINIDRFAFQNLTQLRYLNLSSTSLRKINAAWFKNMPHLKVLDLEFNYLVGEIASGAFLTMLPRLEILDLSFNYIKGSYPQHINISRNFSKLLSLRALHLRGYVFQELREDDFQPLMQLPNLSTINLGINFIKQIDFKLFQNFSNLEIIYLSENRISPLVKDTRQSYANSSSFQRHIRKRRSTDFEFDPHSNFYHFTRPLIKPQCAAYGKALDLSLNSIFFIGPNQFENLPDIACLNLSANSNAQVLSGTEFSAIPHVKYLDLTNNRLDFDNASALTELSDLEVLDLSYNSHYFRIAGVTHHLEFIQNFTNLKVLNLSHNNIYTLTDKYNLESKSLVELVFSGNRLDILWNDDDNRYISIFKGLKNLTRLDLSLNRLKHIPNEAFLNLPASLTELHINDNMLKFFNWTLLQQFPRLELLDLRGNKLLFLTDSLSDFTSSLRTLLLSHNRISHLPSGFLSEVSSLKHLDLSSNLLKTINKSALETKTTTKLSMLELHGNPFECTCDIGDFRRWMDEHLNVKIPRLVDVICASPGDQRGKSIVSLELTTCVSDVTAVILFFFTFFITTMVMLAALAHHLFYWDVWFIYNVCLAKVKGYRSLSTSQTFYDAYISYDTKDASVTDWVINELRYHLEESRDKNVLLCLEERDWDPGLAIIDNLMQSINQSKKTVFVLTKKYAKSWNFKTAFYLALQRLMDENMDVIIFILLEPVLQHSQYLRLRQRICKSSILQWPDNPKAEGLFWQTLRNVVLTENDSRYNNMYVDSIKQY
Protocol: FIGS. 3A-3E. PVP-179 is a TLR8 agonist. FIG. 3A: PVP-179 was sent to InvivoGen for PRR ligand screening service. Various cells lines were utilized to screen for PVP-179-induced ([…]) activation of TLRs, NOD1/2, RIG-I/MDA-5, Dectin-1 or Mincle receptor. The heat-map depicts percentage activity compared to the positive control for each receptor. FIG. 3B: PVP-179 induced activity (% activity compared to the positive control: CL075 at 1 μg/mL) in HEK-293 cells specifically expressing hTLR8. In brief, these cells have an NF-κB/AP-1-inducible secreted embryonic alkaline phosphatase (SEAP) reporter gene which allows monitoring of signaling via TLR8. After incubation for 16-24 hours, supernatant harvested from the cells is mixed with media containing SEAP-substrate and the optical density (OD) is measured at 650 nm using a spectrophotometer. FIG. 3C: As in FIG. 3B, HEK cells specifically expressing hTLR2, hTLR7, or hTLR8, in addition to the HEK-Null cell line carrying only the reporter gene, were stimulated with the indicated concentrations of PVP-179. […] PVP-179 activity is expressed as a percentage of NF-κB induced in the cells stimulated with TNF (positive control for each cell line). […] The supernatants were harvested after 20-24 hours and SEAP production (to assess NF-κB activity) was measured using QUANTIBlue assay. […]

[2] = tested on: murine bone marrow-derived dendritic cells; assay: mTNF and mIL-6 ELISA in murine bone-marrow-derived dendritic cells; details: murine BMDCs, 18 hours
Protocol: FIGS. 4A-4D. PVP-179 activates human macrophages and dendritic cells. FIGS. 4A-4B: Murine mononuclear cells were isolated from bone marrow and induced differentiation into dendritic cells (with GM-CSF and IL-4). After 5 days of culturing, these bone-marrow-derived dendritic cells (BMDCs) were stimulated with PVP-179 or MPLA for 18 hours at indicated concentrations. The supernatants were analyzed via ELISA where each dot in the graph represents the mean production of mTNF (FIG. 4A) and mIL-6 (FIG. 4B). N=6 for PVP-179, N=3 for MPLA. Two-way Anova was performed to determine statistical significance. The comparisons shown are compared to control group (0 M PVP-179). FIGS. 4C-4D: PBMCs were isolated from blood of adult human donors. CD14+ monocytes were specifically isolated from the PBMCs and were then cultured in 10% autologous plasma and induced to differentiate into macrophages with M-CSF (FIG. 4C), or dendritic cells with GM-CSF and IL-4 (FIG. 4D). After 5 days, cells were harvested from each differentiated cell type (macrophages: Mφ; dendritic cells: MoDCs) and a 96-well plate was setup with 100,000 cells/well. Cells were then stimulated with indicated concentrations of PVP-179 or R848 (33 μM) or LPS (100 ng/mL). After 20-24 hours of incubation, supernatants were harvested and applied to TNF ELISA. N=2 donors.

CCCCn1c(/N=C/c2nc3ccccc3n2C)nc2ccccc21 [PVP-179]
innate immune response (cytokine responses), elder vs younger adult leukocytes ([1]; 14-multiplex assay): greater innate immune response in elder leukocytes than in younger adult controls
proinflammatory cytokine and chemokine induction (TNF, IL-6, IL-8, IL-10, IL-12 p40, IL-12 p70, IP-10, CCL5, CCL3, MCP1, GM-CSF, IFN-γ, IFN-α2, IL1-β) ([1]; similarly to R848 at 25 μM): titration-dependent concentration of proinflammatory cytokines
NF-κB activity in HEK cells expressing hTLR8 (hTLR8; 20-24 hours): concentration-dependent activity
activity in HEK-hTLR8 cells after TLR8 inhibitor CUCPT-9a (hTLR8; CUCPT-9a 1 μM, PVP-179 at 33 μM or above): significantly blocked
cytokine inducing activity (mTNF, mIL-6) [2]: minimal cytokine inducing activity
